Data on seven compounds can be found in ChEMBL document CHEMBL1641475, “Synthesis, hypolipidemic and hypoglycemic activity of some novel 2-(4-(2-substituted aminothiazole-4-yl) phenoxy)-2-methyl propanoic acid derivatives” (2011).

The first assay has as its system Rattus norvegicus. The experiment in a line: Antihyperlipidemic activity in high fat diet-induced hyperlipidemic Sprague-Dawley rat assessed as blood LDL level at 250 mg/kg, po after 7 days (reference value: 75.5 +/- 1.24 mg/dl). It counts as functional.
Consider `CC(=O)Nc1nc(-c2ccc(OC(C)(C)C(=O)O)cc2)cs1`, for which the Activity worked out at 60.63 mg/dL.

For the compound `CC(C)(Oc1ccc(-c2csc(NC(=O)CCl)n2)cc1)C(=O)O`, the Activity is 59.53 mg/dL.

As to `CC(C)(Oc1ccc(-c2csc(NC(=O)c3ccccc3)n2)cc1)C(=O)O`, the Activity was 43.67 mg/dL.

In the case of `CC(C)(Oc1ccc(-c2csc(NCC(=O)c3ccc(Cl)cc3)n2)cc1)C(=O)O`, the Activity came out at 61.18 mg/dL.

With `CC(C)(Oc1ccc(-c2csc(NC(=O)CC(=O)Cl)n2)cc1)C(=O)O`, the Activity turned out to be 67.75 mg/dL.

Consider `CC(C)(Oc1ccc(-c2csc(NC(=O)C(=O)Cl)n2)cc1)C(=O)O`, for which the Activity was 49.35 mg/dL.

As to `CC(C)OC(=O)C(C)(C)Oc1ccc(C(=O)c2ccc(Cl)cc2)cc1` [FENOFIBRATE], the Activity stood at 55.33 mg/dL.

The next assay concerns Rattus norvegicus. The assay is described as follows: Antihyperlipidemic activity in high fat diet-induced hyperlipidemic Sprague-Dawley rat assessed as blood cholesterol level at 250 mg/kg, po after 7 days (reference value: 121.5 +/- 1.335 mg/dl). It counts as functional.
As to `CC(=O)Nc1nc(-c2ccc(OC(C)(C)C(=O)O)cc2)cs1`, the Activity was 108.3 mg/dL.

Consider `CC(C)(Oc1ccc(-c2csc(NC(=O)CCl)n2)cc1)C(=O)O`, for which the Activity was 111.5 mg/dL.

`CC(C)(Oc1ccc(-c2csc(NC(=O)c3ccccc3)n2)cc1)C(=O)O`: the Activity was 96.5 mg/dL.

Turning to `CC(C)(Oc1ccc(-c2csc(NCC(=O)c3ccc(Cl)cc3)n2)cc1)C(=O)O`, the Activity was 108.3 mg/dL.

`CC(C)(Oc1ccc(-c2csc(NC(=O)CC(=O)Cl)n2)cc1)C(=O)O`: the Activity is 116.5 mg/dL.

`CC(C)(Oc1ccc(-c2csc(NC(=O)C(=O)Cl)n2)cc1)C(=O)O`: the Activity came out at 96.5 mg/dL.

On to `CC(C)OC(=O)C(C)(C)Oc1ccc(C(=O)c2ccc(Cl)cc2)cc1` [FENOFIBRATE], for which the Activity amounted to 105.2 mg/dL.

For a further assay, the system named is Rattus norvegicus. The experiment in a line: Antihyperlipidemic activity in high fat diet-induced hyperlipidemic Sprague-Dawley rat assessed as blood VLDL level at 250 mg/kg, po after 7 days (reference value: 27 +/- 0.3183 mg/dl). It counts as functional.
For the compound `CC(=O)Nc1nc(-c2ccc(OC(C)(C)C(=O)O)cc2)cs1`, the Activity was found to be 16.1 mg/dL.

For the compound `CC(C)(Oc1ccc(-c2csc(NC(=O)CCl)n2)cc1)C(=O)O`, the Activity was found to be 17.1 mg/dL.

Turning to `CC(C)(Oc1ccc(-c2csc(NC(=O)c3ccccc3)n2)cc1)C(=O)O`, the Activity was determined as 15.47 mg/dL.

For `CC(C)(Oc1ccc(-c2csc(NCC(=O)c3ccc(Cl)cc3)n2)cc1)C(=O)O`, the Activity was found to be 16.23 mg/dL.

Take `CC(C)(Oc1ccc(-c2csc(NC(=O)CC(=O)Cl)n2)cc1)C(=O)O`: the Activity came out at 16.53 mg/dL.

Consider `CC(C)(Oc1ccc(-c2csc(NC(=O)C(=O)Cl)n2)cc1)C(=O)O`, for which the Activity was found to be 15.47 mg/dL.

Turning to `CC(C)OC(=O)C(C)(C)Oc1ccc(C(=O)c2ccc(Cl)cc2)cc1` [FENOFIBRATE], the Activity was 14.67 mg/dL.

The subject of another assay is Rattus norvegicus. The assay is described as follows: Antihyperlipidemic activity in high fat diet-induced hyperlipidemic Sprague-Dawley rat assessed as blood HDL level at 250 mg/kg, po after 7 days (reference value: 19 +/- 0.5774 mg/dl). In kind it is functional.
`CC(=O)Nc1nc(-c2ccc(OC(C)(C)C(=O)O)cc2)cs1`: the Activity was 32.67 mg/dL.

Turning to `CC(C)(Oc1ccc(-c2csc(NC(=O)CCl)n2)cc1)C(=O)O`, the Activity came out at 34.33 mg/dL.

Turning to `CC(C)(Oc1ccc(-c2csc(NC(=O)c3ccccc3)n2)cc1)C(=O)O`, the Activity stood at 37 mg/dL.

On to `CC(C)(Oc1ccc(-c2csc(NCC(=O)c3ccc(Cl)cc3)n2)cc1)C(=O)O`, for which the Activity was 32.5 mg/dL.

`CC(C)(Oc1ccc(-c2csc(NC(=O)CC(=O)Cl)n2)cc1)C(=O)O`: the Activity worked out at 35.83 mg/dL.

With `CC(C)(Oc1ccc(-c2csc(NC(=O)C(=O)Cl)n2)cc1)C(=O)O`, the Activity was determined as 32.5 mg/dL.

Take `CC(C)OC(=O)C(C)(C)Oc1ccc(C(=O)c2ccc(Cl)cc2)cc1` [FENOFIBRATE]: the Activity amounted to 33.5 mg/dL.

The subject of another assay is Rattus norvegicus. The experiment in a line: Antihyperglycemic activity in high fat diet-induced hyperglycemic Sprague-Dawley rat assessed as blood glucose level at 250 mg/kg, po after 7 days (reference value: 106.3 +/- 0.6666 mg/dl). In kind it is functional.
In the case of `CC(=O)Nc1nc(-c2ccc(OC(C)(C)C(=O)O)cc2)cs1`, the Activity is 81.5 mg/dL.

`CC(C)(Oc1ccc(-c2csc(NC(=O)CCl)n2)cc1)C(=O)O`: the Activity worked out at 72.33 mg/dL.

As to `CC(C)(Oc1ccc(-c2csc(NC(=O)c3ccccc3)n2)cc1)C(=O)O`, the Activity is 74.5 mg/dL.

For the compound `CC(C)(Oc1ccc(-c2csc(NCC(=O)c3ccc(Cl)cc3)n2)cc1)C(=O)O`, the Activity is 74.33 mg/dL.

As to `CC(C)(Oc1ccc(-c2csc(NC(=O)CC(=O)Cl)n2)cc1)C(=O)O`, the Activity worked out at 66.67 mg/dL.

In the case of `CC(C)(Oc1ccc(-c2csc(NC(=O)C(=O)Cl)n2)cc1)C(=O)O`, the Activity is 75.17 mg/dL.

For the compound `CC(C)OC(=O)C(C)(C)Oc1ccc(C(=O)c2ccc(Cl)cc2)cc1` [FENOFIBRATE], the Activity was 70.5 mg/dL.

The test system of another assay is Rattus norvegicus. The experiment in a line: Antihyperlipidemic activity in high fat diet-induced hyperlipidemic Sprague-Dawley rat assessed as blood triglyceride level at 250 mg/kg, po after 7 days (reference value: 135 +/- 1.592 mg/dl). In kind it is functional.
Take `CC(=O)Nc1nc(-c2ccc(OC(C)(C)C(=O)O)cc2)cs1`: the Activity is 80.5 mg/dL.

For the compound `CC(C)(Oc1ccc(-c2csc(NC(=O)CCl)n2)cc1)C(=O)O`, the Activity came out at 85.5 mg/dL.

As to `CC(C)(Oc1ccc(-c2csc(NC(=O)c3ccccc3)n2)cc1)C(=O)O`, the Activity was 85.5 mg/dL.

For the compound `CC(C)(Oc1ccc(-c2csc(NCC(=O)c3ccc(Cl)cc3)n2)cc1)C(=O)O`, the Activity is 77.33 mg/dL.

With `CC(C)(Oc1ccc(-c2csc(NC(=O)CC(=O)Cl)n2)cc1)C(=O)O`, the Activity stood at 81.17 mg/dL.

As to `CC(C)(Oc1ccc(-c2csc(NC(=O)C(=O)Cl)n2)cc1)C(=O)O`, the Activity stood at 82.67 mg/dL.

For `CC(C)OC(=O)C(C)(C)Oc1ccc(C(=O)c2ccc(Cl)cc2)cc1` [FENOFIBRATE], the Activity turned out to be 73.17 mg/dL.
